In ChEMBL document CHEMBL3046058, “Insecticidal activity of huperzine A from the New Zealand clubmoss, Lycopodium varium” (2002):
≈ marks a conversion by molar mass, not a printed value.

Tests used:
Assay type in all cases: functional
[1] = test system: Tineola bisselliella; assay: Insecticidal activity against larvae of Tineola bisselliella assessed as survival at 430 to 4500 ppm after 14 days
[2] = test system: Lucilia cuprina; assay: Insecticidal activity against newly hatched larvae of Lucilia cuprina assessed as survival at 450 to 5130 ppm after 24 hr
[3] = test system: Eurhopalus australis; assay: Insecticidal activity against larvae of Anthrenocerus australis assessed as survival after 14 days; settings: 336 h, read-out: LD50 (the source's name)
[4] = test system: Tineola bisselliella; assay: Insecticidal activity against larvae of Tineola bisselliella assessed as survival after 14 days; settings: 336 h, read-out: LD50 (the source's name)
[5] = test system: Lucilia cuprina; assay: Insecticidal activity against newly hatched larvae of Lucilia cuprina assessed as mortality after 24 hr; settings: read-out: LD50 (the source's name)
[6] = test system: Eurhopalus australis; assay: Antifeedant activity against larvae of Anthrenocerus australis assessed as amount of food intake at 63 ppm after 14 days (reference value: 55.5 mg)
[7] = test system: Eurhopalus australis; assay: Insecticidal activity against larvae of Anthrenocerus australis assessed as survival at 125 to 4000 ppm after 14 days

C/C=C1\[C@H]2C=C(C)C[C@]1(N)c1ccc(=O)[nH]c1C2 [HUPERZINE A]
Activity [1]: 3%
Activity [2]: 8%
LC50 [3]: 110 µg/mL (≈ 454 µM)
LC50 [4]: 630 µg/mL (≈ 2600 µM)
LC50 [5]: 2380 µg/mL (≈ 9820 µM)
Activity [6]: 1.5 mg
Activity [7]: 3%
